Here are results for 41 compounds from ChEMBL document CHEMBL1157927, “Identification and structure-activity relationship of 8-hydroxy-quinoline-7-carboxylic acid derivatives as inhibitors of Pim-1 kinase” (Bioorg Med Chem Lett, 2010).

Experiment [1] concerns the target T1, Serine/threonine-protein kinase pim-1 (Homo sapiens, UniProt P11309). In words: Inhibition of PIM1 at 10 uM.
Target sequence in this assay (P11309 whole entry, looked up): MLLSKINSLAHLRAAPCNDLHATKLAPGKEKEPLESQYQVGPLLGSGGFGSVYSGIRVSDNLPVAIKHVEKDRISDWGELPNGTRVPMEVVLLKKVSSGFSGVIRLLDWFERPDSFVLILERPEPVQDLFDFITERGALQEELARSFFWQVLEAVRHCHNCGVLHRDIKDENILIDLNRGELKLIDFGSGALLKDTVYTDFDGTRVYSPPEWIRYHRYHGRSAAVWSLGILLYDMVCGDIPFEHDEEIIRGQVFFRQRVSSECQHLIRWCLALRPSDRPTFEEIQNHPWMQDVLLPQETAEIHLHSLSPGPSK
Experiment [2] addresses T1, Serine/threonine-protein kinase pim-1. In words: Inhibition of PIM1.
Target sequence in this assay (P11309 whole entry): as the sequence (P11309 whole entry, looked up) above
For experiment [3], the target named is Dual specificity tyrosine-phosphorylation-regulated kinase 1A (Mus musculus, UniProt Q61214). In words: Inhibition of mouse DYRK1A expressed in Escherichia coli after 20 mins.
Experiment [4] has as its target Dual specificity protein kinase CLK1 (Homo sapiens, UniProt P49759). In words: Inhibition of CLK1.
The target in experiment [5] is T2, Dual specificity tyrosine-phosphorylation-regulated kinase 2 (Homo sapiens, UniProt Q92630).
T2 sequence (Q92630 whole entry): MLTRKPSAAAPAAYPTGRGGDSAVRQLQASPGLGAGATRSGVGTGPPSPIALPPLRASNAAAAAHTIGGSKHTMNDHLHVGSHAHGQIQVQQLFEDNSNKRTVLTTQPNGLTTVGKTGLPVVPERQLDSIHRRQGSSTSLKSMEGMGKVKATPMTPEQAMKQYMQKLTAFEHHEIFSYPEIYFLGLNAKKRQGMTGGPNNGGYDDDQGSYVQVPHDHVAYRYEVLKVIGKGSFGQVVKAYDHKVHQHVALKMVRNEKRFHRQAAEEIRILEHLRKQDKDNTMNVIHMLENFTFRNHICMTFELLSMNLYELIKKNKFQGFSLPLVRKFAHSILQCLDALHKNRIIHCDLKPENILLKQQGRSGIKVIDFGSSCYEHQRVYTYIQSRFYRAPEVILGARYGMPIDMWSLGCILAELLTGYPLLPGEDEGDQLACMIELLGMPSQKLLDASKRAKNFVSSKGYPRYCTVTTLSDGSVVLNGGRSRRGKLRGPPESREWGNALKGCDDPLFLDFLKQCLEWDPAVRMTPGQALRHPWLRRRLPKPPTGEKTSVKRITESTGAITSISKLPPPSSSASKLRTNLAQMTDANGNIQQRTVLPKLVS
In words: Inhibition of DYRK2.

Experiment [6] concerns the target Cyclin-dependent kinase 1/cyclin B1 (Homo sapiens, UniProt P06493). In words: Inhibition of CDK1/cyclin B. The format is protein-complex assay.
The target of experiment [7] is Casein kinase I isoform alpha (Homo sapiens, UniProt P48729). In words: Inhibition of CK1.
Casein kinase I isoform alpha, sequence (P48729 whole entry, canonical isoform): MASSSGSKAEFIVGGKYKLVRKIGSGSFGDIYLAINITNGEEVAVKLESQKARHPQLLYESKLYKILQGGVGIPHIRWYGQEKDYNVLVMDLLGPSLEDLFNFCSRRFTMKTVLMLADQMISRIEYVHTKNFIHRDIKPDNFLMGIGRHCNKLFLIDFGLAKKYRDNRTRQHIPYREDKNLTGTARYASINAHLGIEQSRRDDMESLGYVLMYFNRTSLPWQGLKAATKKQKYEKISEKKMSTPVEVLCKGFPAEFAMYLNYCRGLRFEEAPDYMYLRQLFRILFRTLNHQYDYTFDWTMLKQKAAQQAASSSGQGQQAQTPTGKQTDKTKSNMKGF
The next experiment concerns the target CDK1/Cyclin A (Homo sapiens, UniProt P06493). In words: Inhibition of CDK1/Cyclin A. In kind it is protein-complex assay.
Experiment [8] deals with Glycogen synthase kinase-3 (Homo sapiens, UniProt P49840+P49841). In words: Inhibition of GSK3alpha/beta. In kind it is protein assay.
Experiment [9] addresses Cyclin-dependent kinase 5/CDK5 activator 1 (Homo sapiens, UniProt Q00535). In words: Inhibition of CDK5/P25. In kind it is protein-complex assay.

Each structure is given as a SMILES string. A value given as a limit tells only on which side of the number the result lay.

Cyclin-dependent kinase 5/CDK5 activator 1, sequence (Q00535 whole entry): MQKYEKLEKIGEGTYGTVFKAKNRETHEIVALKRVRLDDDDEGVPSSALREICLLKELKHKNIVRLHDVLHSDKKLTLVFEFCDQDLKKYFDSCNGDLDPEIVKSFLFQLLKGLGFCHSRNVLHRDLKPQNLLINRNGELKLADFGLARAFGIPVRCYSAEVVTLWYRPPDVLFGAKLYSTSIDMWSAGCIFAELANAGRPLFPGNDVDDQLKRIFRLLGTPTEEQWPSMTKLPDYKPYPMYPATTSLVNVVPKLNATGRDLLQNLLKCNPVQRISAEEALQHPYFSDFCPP
Cyclin-dependent kinase 5/CDK5 activator 1, sequence (Q15078 whole entry, further chain): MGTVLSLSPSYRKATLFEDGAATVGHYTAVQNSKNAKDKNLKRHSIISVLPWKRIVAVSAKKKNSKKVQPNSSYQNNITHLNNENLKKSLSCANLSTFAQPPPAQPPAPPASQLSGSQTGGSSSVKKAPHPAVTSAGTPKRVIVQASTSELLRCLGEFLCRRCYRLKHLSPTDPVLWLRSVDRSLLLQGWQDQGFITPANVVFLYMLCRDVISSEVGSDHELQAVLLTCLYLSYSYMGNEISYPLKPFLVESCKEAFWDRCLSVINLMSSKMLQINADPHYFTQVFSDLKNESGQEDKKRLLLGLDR
CDK1/Cyclin A, sequence (P06493 whole entry): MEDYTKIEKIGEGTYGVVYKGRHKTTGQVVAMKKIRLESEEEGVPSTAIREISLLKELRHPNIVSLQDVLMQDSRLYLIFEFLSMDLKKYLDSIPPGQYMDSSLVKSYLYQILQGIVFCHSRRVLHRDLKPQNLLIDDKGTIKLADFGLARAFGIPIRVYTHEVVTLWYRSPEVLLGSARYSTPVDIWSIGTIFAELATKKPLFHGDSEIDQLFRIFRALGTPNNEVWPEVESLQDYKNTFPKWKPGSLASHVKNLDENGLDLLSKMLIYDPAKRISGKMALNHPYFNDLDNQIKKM
CDK1/Cyclin A, sequence (P20248 whole entry, further chain): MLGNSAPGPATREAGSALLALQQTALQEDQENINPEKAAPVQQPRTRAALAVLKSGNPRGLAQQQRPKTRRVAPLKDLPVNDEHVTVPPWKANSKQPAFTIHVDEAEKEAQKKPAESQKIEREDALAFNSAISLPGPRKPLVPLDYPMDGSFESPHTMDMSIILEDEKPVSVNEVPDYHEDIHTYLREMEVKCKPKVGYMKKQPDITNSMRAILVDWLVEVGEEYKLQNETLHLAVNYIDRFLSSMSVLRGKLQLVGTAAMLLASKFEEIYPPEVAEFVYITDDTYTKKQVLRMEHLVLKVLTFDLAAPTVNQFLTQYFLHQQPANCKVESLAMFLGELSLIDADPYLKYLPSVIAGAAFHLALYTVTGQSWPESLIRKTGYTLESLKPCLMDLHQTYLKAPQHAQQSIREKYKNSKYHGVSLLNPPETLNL
Cyclin-dependent kinase 1/cyclin B1, sequence (P06493 whole entry, canonical isoform): as the sequence (P06493 whole entry) above
Cyclin-dependent kinase 1/cyclin B1, sequence (P14635 whole entry, further chain, canonical isoform): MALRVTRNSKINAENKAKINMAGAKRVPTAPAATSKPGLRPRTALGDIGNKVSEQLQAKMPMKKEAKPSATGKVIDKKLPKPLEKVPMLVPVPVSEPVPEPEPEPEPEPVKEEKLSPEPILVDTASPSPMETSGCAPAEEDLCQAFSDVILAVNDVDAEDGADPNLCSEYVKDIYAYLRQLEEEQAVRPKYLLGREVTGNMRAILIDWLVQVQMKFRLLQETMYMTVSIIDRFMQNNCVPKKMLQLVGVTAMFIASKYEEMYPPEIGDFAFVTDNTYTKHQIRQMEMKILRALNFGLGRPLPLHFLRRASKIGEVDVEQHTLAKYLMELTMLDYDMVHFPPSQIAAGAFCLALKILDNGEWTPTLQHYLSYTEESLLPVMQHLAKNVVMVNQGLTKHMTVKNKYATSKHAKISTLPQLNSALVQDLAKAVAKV
Dual specificity protein kinase CLK1, sequence (P49759 whole entry): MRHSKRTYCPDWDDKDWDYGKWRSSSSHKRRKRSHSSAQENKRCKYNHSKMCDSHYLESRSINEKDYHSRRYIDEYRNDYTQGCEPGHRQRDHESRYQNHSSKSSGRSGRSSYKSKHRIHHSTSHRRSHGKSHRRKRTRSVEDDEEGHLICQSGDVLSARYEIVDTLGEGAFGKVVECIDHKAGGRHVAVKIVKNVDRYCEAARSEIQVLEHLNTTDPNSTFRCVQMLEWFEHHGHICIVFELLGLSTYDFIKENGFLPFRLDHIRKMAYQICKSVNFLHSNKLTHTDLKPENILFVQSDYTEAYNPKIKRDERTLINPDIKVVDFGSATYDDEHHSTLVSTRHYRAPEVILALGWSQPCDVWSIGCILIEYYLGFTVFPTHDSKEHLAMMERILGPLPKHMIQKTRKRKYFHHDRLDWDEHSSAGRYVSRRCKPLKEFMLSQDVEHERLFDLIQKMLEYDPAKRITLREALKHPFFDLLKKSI

As to `O=C(NCc1ccc(O)c(O)c1)c1ccc2c(Cl)cc(Cl)c(O)c2n1`, the inhibition (as a rule, the change of the read-out against control, counted positive when it falls) in experiment [1] is above 50%. For the same compound, in experiment [2], the IC50 – broadly, the concentration at which inhibition is half-maximal – was above 10 µM.

Take `O=C(NCc1cc(O)cc(O)c1)c1ccc2ccc(C(=O)O)c(O)c2n1`: the IC50 in [2] was determined as 0.6 µM.

Take `O=C(O)c1ccc2ccc(/C=C/c3ccccc3)nc2c1O`: 3.2 µM corresponded to half-maximal inhibition in [2] (IC50).

In experiment [1], `O=C(c1ccncc1)c1ccc2ccc(/C=C/c3ccc(O)c(O)c3)nc2c1O` gave an inhibition below 50%. Also, the half-maximal inhibitory concentration (IC50) in experiment [2] is above 10 µM.

With `O=C(NCc1ccc(O)cc1)c1ccc2cccc(C(=O)O)c2n1`, the inhibition in [1] was above 50%. The same compound showed an IC50 in experiment [2] above 10 µM. As to `Cc1ccc2cccc(NS(C)(=O)=O)c2n1`, the inhibition in [1] is above 50%. Besides, in experiment [2], the IC50 was above 10 µM. Consider `O=C(O)c1ccc2ccc(/C=C/c3cc(O)c(O)c(O)c3)nc2c1O`, for which the 50% inhibitory concentration (IC50) in experiment [2] stood at 5.5 µM. Still for that read-out and setting: as for `O=C(Nc1ccc(O)c(O)c1)Nc1ccc2ccc(C(=O)O)c(O)c2n1`, the figure is 1 µM. As for `O=C(NCc1ccc(O)cc1O)c1ccc2ccc(C(=O)O)c(O)c2n1`, the IC50 is 4.5 µM in experiment [3]; above 10 µM in experiment [4]; 6.3 µM in experiment [5]; above 10 µM in experiment [6]; above 10 µM in [7]; above 10 µM against CDK1/Cyclin A. The IC50 was above 10 µM in experiment [8], above 10 µM in experiment [9] and 0.2 µM in experiment [2]. Turning to `COc1ccc(/C=C/c2ccc3ccc(C(=O)O)c(O)c3n2)cc1O`, the IC50 is 1.3 µM in experiment [3]; 8.3 µM in experiment [4]; 1.1 µM in experiment [5]; above 10 µM in experiment [6]; above 10 µM in experiment [7]; above 10 µM at CDK1/Cyclin A. Moreover, the results for the IC50 in experiment [8], in experiment [9] and in experiment [2] were above 10 µM, above 10 µM and 0.5 µM, respectively. The compound `O=C(O)c1ccc2ccc(/C=C/c3ccc(O)cc3O)nc2c1O` showed an IC50 in [2] of 0.5 µM. In other words, the sub-micromolar range. Same read-out and setting: as for `O=C(O)c1ccc2ccc(/C=C/c3ccc(F)c(F)c3)nc2c1O`, the figure is 4.5 µM; as for `O=C(O)c1ccc2ccc(/C=C/c3cccc(O)c3O)nc2c1O`, 7 µM.

`O=C(NCc1ccc(O)c(O)c1)c1ccc2ccc(C(=O)O)c(O)c2n1` showed an inhibition in [1] above 50%. Moreover, the IC50 in experiment [2] is 2.1 µM.

In turn, `O=C(O)c1ccc2ccc(/C=C/c3cc(O)cc(O)c3)nc2c1O` came in with a half-inhibitory concentration (IC50) in experiment [2] of 0.4 µM.

With `O=C(O)c1ccc2ccc(CCc3ccc(O)c(O)c3)nc2c1O`, the inhibition in [1] was above 50%. Also, 5 µM corresponded to half-maximal inhibition in experiment [2] (IC50). The compound `O=C(NCc1ccc(O)c(O)c1)Nc1ccc2ccc(C(=O)O)c(O)c2n1` registered a 50% inhibitory concentration (IC50) in experiment [2] of 0.5 µM.

For `Oc1ccc(/C=C/c2ccc3cccc(O)c3n2)cc1O`, the inhibition in experiment [1] was above 50%. In [2], this compound had an IC50 above 10 µM. Regarding `COc1cc(/C=C/c2ccc3ccc(C(=O)O)c(O)c3n2)cc(Cl)c1O`, inhibition in experiment [2] was half-maximal at 4.5 µM (IC50). `Cc1ccc2cccc(C(=O)O)c2n1`: the inhibition in [1] is above 50%. This compound showed an IC50 in experiment [2] above 10 µM. In experiment [2], `COc1ccc(CNC(=O)Nc2ccc3ccc(C(=O)O)c(O)c3n2)cc1` returned a half-maximal inhibitory concentration (IC50) of 2 µM. The same measure, in the same setting: as for `O=C(NNc1ccccc1)c1ccc2ccc(C(=O)O)c(O)c2n1`, the figure is 5.1 µM; as for `O=C(O)c1cc(/C=C/c2ccc3ccc(C(=O)O)c(O)c3n2)ccc1O`, 3.1 µM. Compound `O=C(O)c1ccc2ccc(/C=C/c3cc(Br)c(O)c(Br)c3)nc2c1O` returned an IC50 in experiment [2] of 2.1 µM. With `COc1cc(CNC(=O)c2ccc3ccc(C(=O)O)c(O)c3n2)cc(O)c1O`, in experiment [2], 3.3 µM corresponded to half-maximal inhibition (IC50).

Regarding `Nc1ccc(/C=C/c2ccc3ccc(C(=O)O)c(O)c3n2)cc1`, the IC50 in experiment [2] was determined as 4 µM. With `COc1cc(NC(=O)c2ccc3ccc(C(=O)O)c(O)c3n2)cc(O)c1O`, the IC50 in experiment [2] was determined as 1 µM. On the same count and under the same terms, as for `O=C(O)c1ccc2ccc(/C=C/c3ccc(O)cc3)nc2c1O`, the figure is 0.7 µM.

Compound `O=C(O)c1ccc(O)c2nc(/C=C/c3ccc(O)c(O)c3)ccc12` registered an inhibition in [1] below 50%. Besides, in experiment [2], the IC50 was above 10 µM. `Cc1ccc2c(-c3ccccc3)cc(C(=O)O)c(O)c2n1` gave an inhibition in experiment [1] above 50%. In [2], this compound gave a 50% inhibitory concentration (IC50) above 10 µM. The compound `O=C(O)c1ccc2ccc(/C=C/c3ccc(O)c(O)c3)nc2c1O` had an inhibition in [1] above 50%. In addition, the concentration for half-maximal inhibition (IC50) in experiment [2] was 1.7 µM. In the case of `O=C(NNc1ccc([N+](=O)[O-])cc1[N+](=O)[O-])c1ccc2ccc(C(=O)O)c(O)c2n1`, half-maximal inhibition in experiment [2] (IC50) was put at 3 µM.

The compound `O=C(O)c1ccc2ccc(/C=C/c3ccc4c(c3)OCO4)nc2c1O` displayed an IC50 in experiment [2] of 3 µM.

On to `COc1cc(/C=C/c2ccc3ccc(C(=O)O)c(O)c3n2)cc([N+](=O)[O-])c1O`, for which, in experiment [2], the IC50 was determined as 2.8 µM. On to `O=C(NCc1cccc(O)c1O)c1ccc2ccc(C(=O)O)c(O)c2n1`, for which the IC50 in experiment [2] came to 2.8 µM. Turning to `O=C(O)c1ccc2ccc(/C=C/c3ccc([N+](=O)[O-])cc3)nc2c1O`, the IC50 in [2] stood at 3.4 µM. `COc1cc(/C=C/c2ccc3ccc(C(=O)O)c(O)c3n2)cc(OC)c1O` gave an IC50 in experiment [2] of 2.5 µM.

In [2], `COc1cc(/C=C/c2ccc3ccc(C(=O)O)c(O)c3n2)ccc1O` displayed an IC50 of 2 µM. In [1], `Cc1ccc2ccc(C(=O)O)c(O)c2n1` returned an inhibition above 50%. Besides, the IC50 in experiment [2] was above 10 µM. On to `COc1cc(/C=C/c2ccc3ccc(C(=O)O)c(O)c3n2)cc(O)c1O`, for which half-maximal inhibition in experiment [2] (IC50) was put at 3.1 µM.

With `O=C(O)c1cccc2ccc(/C=C/c3ccc(O)c(O)c3)nc12`, the inhibition in experiment [1] was above 50%. This compound had an IC50 in experiment [2] above 10 µM.
